The source made the active and inactive calls. Cut-off read from the data, not from the text of the source, for most assays here: actives have a measured EC50 and inactives only a lower limit.
Experiments:
[1] = molecular target: T1, Acyl-homoserine lactone acylase PvdQ (Pseudomonas aeruginosa (strain LESB58), UniProt Q9I194); assay: PvdQ acylase enzyme activity blockers – biochemical, fluorescence, plate reader and imaging, cherry-picks, dose response (AID 493231)
T1 sequence (Q9I194 whole entry): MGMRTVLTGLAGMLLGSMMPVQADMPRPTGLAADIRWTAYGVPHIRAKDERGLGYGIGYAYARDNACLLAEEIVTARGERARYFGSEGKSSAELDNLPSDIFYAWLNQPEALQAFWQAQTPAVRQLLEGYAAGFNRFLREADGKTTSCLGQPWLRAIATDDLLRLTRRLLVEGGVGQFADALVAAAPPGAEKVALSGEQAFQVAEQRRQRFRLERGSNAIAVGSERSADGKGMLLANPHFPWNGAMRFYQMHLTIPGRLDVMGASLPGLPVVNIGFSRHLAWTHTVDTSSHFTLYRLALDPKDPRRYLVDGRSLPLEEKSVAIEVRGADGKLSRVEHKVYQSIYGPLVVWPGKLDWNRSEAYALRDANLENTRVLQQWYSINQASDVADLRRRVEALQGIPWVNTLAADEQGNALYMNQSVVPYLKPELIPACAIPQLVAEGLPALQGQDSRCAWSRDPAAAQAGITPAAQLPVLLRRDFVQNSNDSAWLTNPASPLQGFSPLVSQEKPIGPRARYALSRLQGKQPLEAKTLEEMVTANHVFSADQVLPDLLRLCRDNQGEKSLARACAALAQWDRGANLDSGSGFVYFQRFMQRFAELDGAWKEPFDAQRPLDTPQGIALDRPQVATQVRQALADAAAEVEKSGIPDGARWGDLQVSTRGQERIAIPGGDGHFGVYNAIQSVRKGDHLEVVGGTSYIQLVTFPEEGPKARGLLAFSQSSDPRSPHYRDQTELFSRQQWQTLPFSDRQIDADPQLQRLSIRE

HEK293 = assay: cells; assay type: functional, cell-based; details: Homo sapiens
[2] = molecular target: Nuclear receptor subfamily 0 group B member 1 (Homo sapiens, UniProt P51843); assay: Luminescence-based cell-based high throughput dose response assay for inhibitors of the orphan nuclear receptor subfamily 0, group B, member 1 (DAX1; NR0B1). [Related pubchem assays (depositor defined):AID504766, AID504790]; assay type: functional
[3] = molecular target: T2, Rac GTPase-activating protein 1 (Homo sapiens, UniProt Q9H0H5); assay: blockers of MgcRacGAP-driven Rac1 GTP hydrolysis – biochemical, ADP Hunter fluorescence, primary and confirmatory, confirmation (AID 624330); assay type: functional
T2 sequence (Q9H0H5 whole entry): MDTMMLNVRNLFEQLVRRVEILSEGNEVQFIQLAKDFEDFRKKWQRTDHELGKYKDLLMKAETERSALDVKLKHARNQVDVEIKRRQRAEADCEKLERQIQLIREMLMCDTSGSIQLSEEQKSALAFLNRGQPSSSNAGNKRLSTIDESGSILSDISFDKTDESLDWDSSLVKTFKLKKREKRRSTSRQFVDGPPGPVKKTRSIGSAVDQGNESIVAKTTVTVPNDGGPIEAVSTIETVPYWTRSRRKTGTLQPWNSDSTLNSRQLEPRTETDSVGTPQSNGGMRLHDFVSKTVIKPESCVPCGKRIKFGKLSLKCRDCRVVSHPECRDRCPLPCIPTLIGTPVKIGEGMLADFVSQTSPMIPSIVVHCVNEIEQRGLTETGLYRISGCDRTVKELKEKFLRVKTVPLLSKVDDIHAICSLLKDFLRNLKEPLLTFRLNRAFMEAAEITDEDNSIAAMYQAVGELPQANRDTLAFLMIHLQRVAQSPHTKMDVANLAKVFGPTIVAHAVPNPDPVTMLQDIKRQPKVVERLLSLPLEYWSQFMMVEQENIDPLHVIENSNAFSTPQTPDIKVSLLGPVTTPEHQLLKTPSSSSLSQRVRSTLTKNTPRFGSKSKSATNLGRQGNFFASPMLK

[4] = NIH-3T3 fibroblast cytotoxicity, dose response, cytotoxicity control, cell-based, fluorescence, Alamar Blue, secondary assay (AID 2327); assay type: functional;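 note: NIH-3T3 mouse fibroblasts cultured with fluconazole at 8 µg/mL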
[5] = fluconazole-exposed Candida albicans growth modulators – fluorescence, retest, confirmation (AID 2467); assay type: functional, cell-based
[6] = molecular target: Serine/threonine-protein phosphatase (Candida dubliniensis (strain CD36 / CBS 7987 / NCPF 3949 / NRRLY-17841) (Yeast), UniProt B9W6M3); assay: blockers of CaCl2-induced CDRE-lacZ signaling – S. cerevisiae, luminescence, secondary, dose response (AID 2388); assay type: functional, cell-based;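 note: yeast reporter cells carrying a calcineurin-responsive lacZ construct stimulated with calcium chloride; luminescent beta-galactosidase reporter signal in whole cells rather than isolated phosphatase activity; potency for inhibition where a drop in reporter signal means calcineurin blockade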
[7] = molecular target: ATP-dependent molecular chaperone HSP82 (Candida albicans (strain WO-1) (Yeast), UniProt C4YTQ8); assay: steroid-induced GRE reporter decrease in yeast – S. cerevisiae, luminescence, Hsp90 inhibitor project, dose response (AID 2400); assay type: functional, cell-based;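 note: beta-galactosidase luminescence from glucocorticoid response element reporter as proxy for Hsp90 function; inhibitor potency where signal loss means Hsp90 inhibition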
Hexokinase-1 = Hexokinase-1 (Homo sapiens, UniProt P19367); assay: SAR analysis of small molecule inhibitors of hexokinase domain containing I (HKDC1) in the hexokinase 1 selectivity assay. [Related pubchem assays (depositor defined):AID493160, AID493190]; assay type: functional
Hexokinase HKDC1 = molecular target: T3, Hexokinase HKDC1 (Homo sapiens, UniProt Q2TB90); assay: SAR analysis of small molecule inhibitors of hexokinase domain containing I (HKDC1). [Related pubchem assays (depositor defined):AID493160, AID493190]; assay type: functional
T3 sequence (Q2TB90 whole entry): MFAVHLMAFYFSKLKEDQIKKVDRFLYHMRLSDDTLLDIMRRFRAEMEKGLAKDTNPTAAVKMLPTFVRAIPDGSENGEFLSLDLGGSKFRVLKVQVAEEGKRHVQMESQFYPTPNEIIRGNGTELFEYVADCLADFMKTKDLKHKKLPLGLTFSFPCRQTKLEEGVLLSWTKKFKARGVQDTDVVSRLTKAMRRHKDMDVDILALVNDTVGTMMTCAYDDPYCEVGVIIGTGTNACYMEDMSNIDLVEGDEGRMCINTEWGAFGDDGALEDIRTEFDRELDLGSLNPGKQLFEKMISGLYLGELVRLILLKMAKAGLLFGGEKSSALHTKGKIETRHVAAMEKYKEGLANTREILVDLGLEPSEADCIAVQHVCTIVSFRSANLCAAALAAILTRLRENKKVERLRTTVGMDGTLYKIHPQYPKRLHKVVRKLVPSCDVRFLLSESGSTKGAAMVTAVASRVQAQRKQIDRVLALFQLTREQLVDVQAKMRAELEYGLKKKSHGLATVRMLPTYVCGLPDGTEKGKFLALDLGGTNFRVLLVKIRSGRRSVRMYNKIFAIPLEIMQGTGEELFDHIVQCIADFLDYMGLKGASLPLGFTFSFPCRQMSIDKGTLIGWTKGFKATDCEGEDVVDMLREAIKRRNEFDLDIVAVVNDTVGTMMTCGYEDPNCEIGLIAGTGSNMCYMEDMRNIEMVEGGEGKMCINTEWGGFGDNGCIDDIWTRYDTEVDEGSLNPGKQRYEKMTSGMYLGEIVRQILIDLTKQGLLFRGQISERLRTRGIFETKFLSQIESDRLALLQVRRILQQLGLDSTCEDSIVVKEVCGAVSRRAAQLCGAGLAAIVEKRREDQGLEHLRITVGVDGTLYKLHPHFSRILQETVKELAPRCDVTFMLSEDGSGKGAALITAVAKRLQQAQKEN

[8] = test system: Streptococcus sp. 'group A'; assay: Streptococcus pyogenes SK(-)GAS viability under kanamycin – luminescence, BacTiterGlo, confirmation, counter-screen for streptokinase expression inhibitor project, dose response (AID 1900); assay type: functional, organism-based
[9] = molecular target: T4, Calpain-2 catalytic subunit (Sus scrofa, UniProt P43367); assay: m-calpain protease blockers, concentration series – biochemical, fluorogenic peptide substrate, dose response (AID 1420); assay type: functional
T4 sequence (P43367 whole entry): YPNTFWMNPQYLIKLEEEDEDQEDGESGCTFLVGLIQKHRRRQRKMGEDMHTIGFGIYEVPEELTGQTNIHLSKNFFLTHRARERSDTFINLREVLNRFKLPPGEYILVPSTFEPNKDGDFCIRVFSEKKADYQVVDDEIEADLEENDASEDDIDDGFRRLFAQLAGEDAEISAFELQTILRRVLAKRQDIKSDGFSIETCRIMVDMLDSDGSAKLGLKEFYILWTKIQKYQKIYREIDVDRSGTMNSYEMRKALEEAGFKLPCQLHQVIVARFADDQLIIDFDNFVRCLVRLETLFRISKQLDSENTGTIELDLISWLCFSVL

Streptococcus = assay: GAS UMAA2166 growth inhibition – luminescence, BacTiterGlo, counter-screen for streptokinase expression inhibitor project, dose response (AID 1915); assay type: functional, organism-based;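 note: potency for reduction of bacterial viability or growth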
[10] = molecular target: Heat shock protein HSP 90-alpha (Homo sapiens, UniProt P07900); assay type: functional, organism-based
Vero = assay: viability of Vero cells under compound – cytotoxicity control for flavivirus capping enzyme inhibitors (AID 588742); assay type: functional; details: Chlorocebus sabaeus
Genome polyprotein = Genome polyprotein (dengue virus type 2, UniProt P29990); assay: flavivirus cap methylation enzyme inhibition – biochemical, confirmation dose response, primary screen (AID 588689); assay type: functional
[11] = Luminescence Cell-Based Dose Response to Identify Activators of 5'UTR Stem-Loop Driven Prion Protein mRNA Translation in H4-C Neuroglioblastoma Cells. [Related pubchem assays: 1829 (Project Summary), 1814 (Primary HTS)]; assay type: functional
[12] = Luminescence Cell-Based Dose Confirmation HTS to Identify Activators of 5'UTR Stem-Loop Driven Alpha-Synuclein mRNA Translation in H4 Neuroglioblastoma Cells. [Related pubchem assays: 1829 (Project Summary), 1814 (Primary HTS)]; assay type: functional
[13] = Luminescence Cell-Based Dose Response HTS to Identify Activators of Luciferase Translation or Activity in H4 […] Cells. [Related pubchem assays: 1829 (Project Summary), 1814 (Primary HTS)]; assay type: functional
H4 = assay: Luminescence Cell-Based Dose Response HTS to Identify Activators of 5'UTR Stem-Loop Driven Prion Protein mRNA Translation in H4 Neuroglioblastoma Cells. [Related pubchem assays: 1829 (Project Summary), 1814 (Primary HTS)]; assay type: functional; details: Homo sapiens
[14] = Luminescence Cell-Based Dose Response to Identify Activators of Luciferase Translation or Activity in H4-C Neuroglioblastoma Cells. [Related pubchem assays: 1829 (Project Summary), 1814 (Primary HTS)]; assay type: functional
[15] = Luminescence Cell-Based Dose Confirmation to Identify Activators of 5'UTR Stem-Loop Driven Alpha-Synuclein mRNA Translation in H4 Neuroglioblastoma Cells. [Related pubchem assays: 1829 (Project Summary), 1814 (Primary HTS)]; assay type: functional

ATP-dependent molecular chaperone HSP82, sequence (C4YTQ8 whole entry, the tested form may be a part): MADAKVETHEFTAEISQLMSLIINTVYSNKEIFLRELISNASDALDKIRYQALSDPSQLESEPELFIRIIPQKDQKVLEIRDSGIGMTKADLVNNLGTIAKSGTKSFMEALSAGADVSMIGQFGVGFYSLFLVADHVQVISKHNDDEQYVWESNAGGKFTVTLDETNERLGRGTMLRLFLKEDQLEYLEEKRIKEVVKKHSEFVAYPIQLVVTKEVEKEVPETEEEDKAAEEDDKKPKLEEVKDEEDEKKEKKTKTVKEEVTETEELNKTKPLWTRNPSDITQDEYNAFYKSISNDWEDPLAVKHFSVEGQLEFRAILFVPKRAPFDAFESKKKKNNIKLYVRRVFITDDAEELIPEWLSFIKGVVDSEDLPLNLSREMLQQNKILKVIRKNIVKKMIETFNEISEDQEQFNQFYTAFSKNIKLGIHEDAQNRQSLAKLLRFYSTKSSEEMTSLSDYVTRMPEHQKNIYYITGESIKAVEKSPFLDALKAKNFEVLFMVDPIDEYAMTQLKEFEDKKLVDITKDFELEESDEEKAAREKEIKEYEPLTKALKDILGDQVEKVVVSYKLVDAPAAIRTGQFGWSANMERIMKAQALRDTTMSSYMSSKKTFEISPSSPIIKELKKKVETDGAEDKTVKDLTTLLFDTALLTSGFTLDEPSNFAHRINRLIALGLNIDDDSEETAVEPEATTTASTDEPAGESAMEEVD
Serine/threonine-protein phosphatase, sequence (B9W6M3 whole entry): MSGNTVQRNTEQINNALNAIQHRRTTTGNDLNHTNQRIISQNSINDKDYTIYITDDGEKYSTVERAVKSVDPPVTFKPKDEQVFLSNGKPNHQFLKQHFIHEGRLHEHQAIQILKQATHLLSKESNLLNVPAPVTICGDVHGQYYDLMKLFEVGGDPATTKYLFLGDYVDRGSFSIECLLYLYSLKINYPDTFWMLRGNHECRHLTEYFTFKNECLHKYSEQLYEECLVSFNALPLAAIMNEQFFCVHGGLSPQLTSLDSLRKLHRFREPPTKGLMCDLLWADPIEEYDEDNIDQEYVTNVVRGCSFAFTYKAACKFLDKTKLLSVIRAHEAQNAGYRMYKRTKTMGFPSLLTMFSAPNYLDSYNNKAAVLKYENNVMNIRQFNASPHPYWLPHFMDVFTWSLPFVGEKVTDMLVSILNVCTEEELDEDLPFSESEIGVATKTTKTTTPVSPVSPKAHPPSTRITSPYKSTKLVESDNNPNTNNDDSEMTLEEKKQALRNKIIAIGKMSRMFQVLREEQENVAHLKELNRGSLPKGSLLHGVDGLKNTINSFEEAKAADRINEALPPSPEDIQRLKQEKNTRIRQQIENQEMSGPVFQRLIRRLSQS
Genome polyprotein, sequence (P29990 2492-3391 limits assumed): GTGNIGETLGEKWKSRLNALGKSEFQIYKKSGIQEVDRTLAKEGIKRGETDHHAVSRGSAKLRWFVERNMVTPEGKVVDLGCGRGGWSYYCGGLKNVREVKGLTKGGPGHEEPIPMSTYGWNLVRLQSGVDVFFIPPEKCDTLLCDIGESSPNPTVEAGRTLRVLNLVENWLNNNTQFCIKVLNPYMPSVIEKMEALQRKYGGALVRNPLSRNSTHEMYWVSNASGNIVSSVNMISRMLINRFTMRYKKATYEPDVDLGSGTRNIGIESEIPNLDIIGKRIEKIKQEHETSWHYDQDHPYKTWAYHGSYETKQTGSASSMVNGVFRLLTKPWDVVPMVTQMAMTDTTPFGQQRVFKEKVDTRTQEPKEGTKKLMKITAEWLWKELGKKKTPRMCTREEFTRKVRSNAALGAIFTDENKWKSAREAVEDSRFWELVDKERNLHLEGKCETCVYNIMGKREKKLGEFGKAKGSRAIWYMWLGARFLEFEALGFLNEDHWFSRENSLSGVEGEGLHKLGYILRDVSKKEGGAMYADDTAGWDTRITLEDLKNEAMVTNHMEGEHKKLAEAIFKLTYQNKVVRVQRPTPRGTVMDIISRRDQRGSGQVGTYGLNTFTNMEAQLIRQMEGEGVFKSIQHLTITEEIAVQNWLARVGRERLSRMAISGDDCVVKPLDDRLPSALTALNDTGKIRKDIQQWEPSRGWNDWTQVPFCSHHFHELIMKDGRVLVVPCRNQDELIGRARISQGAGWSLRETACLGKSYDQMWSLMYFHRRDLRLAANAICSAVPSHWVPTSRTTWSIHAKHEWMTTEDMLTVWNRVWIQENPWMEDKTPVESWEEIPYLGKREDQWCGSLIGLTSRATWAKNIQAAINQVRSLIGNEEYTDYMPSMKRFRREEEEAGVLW
Hexokinase-1, sequence (P19367 whole entry, the tested form may be a part): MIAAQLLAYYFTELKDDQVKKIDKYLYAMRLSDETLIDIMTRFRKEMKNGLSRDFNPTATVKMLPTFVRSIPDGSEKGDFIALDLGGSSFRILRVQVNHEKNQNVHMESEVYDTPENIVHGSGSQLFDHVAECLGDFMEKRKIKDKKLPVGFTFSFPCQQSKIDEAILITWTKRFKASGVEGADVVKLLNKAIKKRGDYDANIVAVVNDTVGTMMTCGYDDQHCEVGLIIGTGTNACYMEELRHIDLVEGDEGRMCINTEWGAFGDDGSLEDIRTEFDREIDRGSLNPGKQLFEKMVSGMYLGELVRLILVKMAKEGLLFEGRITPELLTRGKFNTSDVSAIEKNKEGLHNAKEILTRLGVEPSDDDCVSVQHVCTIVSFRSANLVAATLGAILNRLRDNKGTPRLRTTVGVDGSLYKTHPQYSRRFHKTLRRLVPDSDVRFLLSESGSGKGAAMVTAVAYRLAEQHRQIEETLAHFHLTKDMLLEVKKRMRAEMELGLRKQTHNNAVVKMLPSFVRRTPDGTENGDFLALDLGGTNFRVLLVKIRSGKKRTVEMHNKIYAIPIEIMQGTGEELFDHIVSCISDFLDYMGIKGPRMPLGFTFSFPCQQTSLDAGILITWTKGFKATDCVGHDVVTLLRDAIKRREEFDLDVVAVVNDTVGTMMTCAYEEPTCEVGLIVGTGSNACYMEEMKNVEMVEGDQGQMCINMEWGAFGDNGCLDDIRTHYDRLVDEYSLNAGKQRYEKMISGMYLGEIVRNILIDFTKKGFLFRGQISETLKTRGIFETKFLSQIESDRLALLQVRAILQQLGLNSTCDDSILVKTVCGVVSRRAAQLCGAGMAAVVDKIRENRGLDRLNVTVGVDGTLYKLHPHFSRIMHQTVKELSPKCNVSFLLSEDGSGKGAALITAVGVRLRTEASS
Nuclear receptor subfamily 0 group B member 1, sequence (P51843 whole entry): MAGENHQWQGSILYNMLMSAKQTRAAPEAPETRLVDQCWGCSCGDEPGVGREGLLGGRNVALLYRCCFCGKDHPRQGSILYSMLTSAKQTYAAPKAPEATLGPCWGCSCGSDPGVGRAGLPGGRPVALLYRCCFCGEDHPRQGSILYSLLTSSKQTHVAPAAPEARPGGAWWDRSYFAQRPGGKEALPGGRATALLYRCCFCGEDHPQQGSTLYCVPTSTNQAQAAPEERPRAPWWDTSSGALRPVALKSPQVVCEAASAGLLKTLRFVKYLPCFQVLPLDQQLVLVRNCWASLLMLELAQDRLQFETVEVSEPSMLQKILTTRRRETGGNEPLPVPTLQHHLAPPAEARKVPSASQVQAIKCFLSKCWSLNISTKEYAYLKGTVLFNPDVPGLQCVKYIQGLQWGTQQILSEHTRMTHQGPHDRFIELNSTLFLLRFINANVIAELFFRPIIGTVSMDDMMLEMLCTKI

Structure (SMILES): CCOc1ccc(CNC2CCCc3ccccc32)cc1 (stereo not given)
- AC50 [1]: 12.3 µM (active)
- IC50 (HEK293): > 67.5 µM (inactive)
- IC50 [2]: > 67.5 µM (inactive)
- IC50 [3]: 202 µM (active)

Structure (SMILES): Clc1ccc2c(c1)C(c1cccs1)=NNC(c1cccnc1)=N2
- EC50 [4]: > 150 µM (inactive)
- EC50 [5]: 0.101 µM (active)
- EC50 [6]: > 180 µM (inactive)
- EC50 [7]: > 150 µM (inactive)

Structure (SMILES): Cc1cc2nnc(SCC(=O)Nc3ccccc3)n2c2ccccc12
- IC50 (Hexokinase-1): > 80 µM (inactive)
- IC50 (Hexokinase HKDC1): > 80 µM (inactive)

Structure (SMILES): O=[N+]([O-])c1cc(Cl)c(O)c2ncccc12
- EC50 [4]: 15.5 µM (active)
- EC50 [8]: 1.33 µM (active)
- EC50 [5]: 0.055 µM (active)
- EC50 [6]: > 180 µM (inactive)
- IC50 [9]: > 50 µM (not active)
- EC50 (Streptococcus): 5.77 µM (active)
- AC50 [10]: 1.86 µM (active)
- EC50 [7]: 1.48 µM (active)

Structure (SMILES): O=C(Nc1nnc(SCc2ccccc2)s1)c1ccc2[nH]cnc2c1
- IC50 (Hexokinase-1): > 80 µM (inactive)
- IC50 (Hexokinase HKDC1): > 80 µM (inactive)

Structure (SMILES): CSc1ccc(-c2sc(Nc3cccc4ccccc34)n[n+]2-c2ccccc2)cc1
- CC50 (Vero): > 40 µM (active)
- IC50 (Genome polyprotein): 44.5 µM (active)

Structure (SMILES): Cc1ccc(-c2nn(-c3ccccc3)cc2C=C2C(=O)CC(C)(C)CC2=O)cc1
- EC50 [11]: > 12 µM (not active)
- EC50 [12]: > 120 µM (not active)
- EC50 [13]: 0.454 µM (active)
- EC50 (H4): > 120 µM (not active)
- EC50 [14]: 1.35 µM (active)
- EC50 [15]: 0.555 µM (active)
- CC50 (Vero): 19.1 µM (active)
- IC50 (Genome polyprotein): 44.8 µM (active)

Source: ChEMBL document CHEMBL1201862, “PubChem BioAssay data set” (2004)
